# According to US20230174473A1, “ANTIMICROBIAL AND ANTIVIRAL SULFUR CONTAINING GLYCEROL MONOESTER DERIVATIVES” (priority 2020, published 2023):
# Tests used:
# [1] = tested on: Prevotella melaninogenica; details: Gram Negative; Anaerobe; 1 strain tested; cited from earlier work
# Streptococcus sanguinis = details: Gram Positive; Aerotolerant Anaerobe; 1 strain tested; cited from earlier work
# Group C Streptococcus = details: Gram Positive; Aerotolerant Anaerobe; 1 strain tested; cited from earlier work
# Klebsiella pneumoniae = details: Gram Negative; Aerobe; 1 strain tested; cited from earlier work
# Enterobacter aerogenes = details: Gram Negative; Aerobe; 1 strain tested; cited from earlier work
# [2] = tested on: Streptococcus pneumoniae Serotype III; details: Gram Positive; Aerotolerant Anaerobe; 2 strains tested; cited from earlier work
# S. aureus strains = assay: Susceptibility of S. aureus strains to GML; format: cell-based, Staphylococcus aureus
# Clostridium perfringens = details: Gram Positive; Anaerobe; 1 strain tested; cited from earlier work
# Bacillus subtilis = assay: MIC/MBC at 24 hours; format: cell-based; details: Time 0 1.1E+07 CFU/ml, 200 RPM shaking at 37° C.
# Protocol: Bacillus subtilis, an aerobic spore-former, was incubated with 200 RPM shaking at 37° C. The strain was a recent clinical isolate at the University of Iowa, and proves to develop resistance to standard […] agents.
# (§1) All solutions used in the MBC and MIC studies were prepared from a stock of 100 mg/ml of either GML, SGML or S2GML in absolute ethanol.
# Candida auris = assay: MIC/MBC at 24 hours; format: cell-based; details: Time 0 4.5E+05 CFU/ml
# Protocol: Candida auris is a newly emerging yeast (fungus) that is causing skin and bloodstream infections in humans. It easily becomes resistant to anti-fungal agents, making development of novel therapeutics a necessity. This organism is related to Candida albicans and other Candida species. The MIC and MBC in the above table show very good activity of both the SGML and S2GML versus this organism.
# as §1
# [3] = tested on: Haemophilus influenza Non-typable; details: Gram Negative; Aerobe; 2 strains tested; cited from earlier work
# [4] = tested on: Streptococcus pyogenes (Group A streptococcus) 594; assay: MIC/MBC at 24 hours; format: cell-based; details: Streptococcus pyogenes GAS 594, Time 0 2.7E+06 CFU/ml, stationary at 37° C. in 5% CO2
# Protocol: Streptococcus pyogenes (Group A streptococcus) 594 is a standard scarlet fever strain that has been extensively published on. The strain was incubated stationary at 37° C. in 5% CO2.
# as §1
# Burkholderia cenocepacia = details: Gram Negative; Aerobe; 1 strain tested; cited from earlier work
# Mycoplasma hominis = details: Cell Wall deficient; Aerobe; 1 strain tested; cited from earlier work
# Staphylococcus aureus = details: Gram Positive; Aerobe; 54 strains tested; cited from earlier work
# Streptococcus agalactiae = details: Gram Positive; Aerotolerant Anaerobe; 3 strains tested; cited from earlier work
# Gardnerella vaginalis = details: Gram Negative; Aerobe; 2 strains tested; cited from earlier work
# Streptococcus suis = details: Gram Positive; Aerotolerant Anaerobe; 1 strain tested; cited from earlier work
# [5] = tested on: Staphylococcus aureus strain MN8; assay: MIC and MBC assay, broth dilution with plate counts; format: cell-based; details: Staphylococcus aureus, MN8, 24 h
# Protocol: For this experiment, all cultures were aerobic at 37° C. with 150 RPM gyrotary shaking. Stationary phase with this microbe is 1.0x1010 colony-forming units (CFUs)/ml. The next morning the culture was diluted to approximately 5x10^6/ml in 1 ml amounts of Todd Hewitt broth in 5 ml polystyrene test tubes. The tubes contained serial two-fold dilutions of glycerol monolaurate, SGML, or […]. The control tubes contained no GML or SGML and […] compounds. The compounds were tested in triplicate. […] The control tube contained the highest volume of ethanol that was used to deliver the compounds to each 1 ml test tube. […] Once plated, the plates were incubated aerobically for 24 hours at 37° C. Counts were made to determine CFUs/ml. The CFUs/ml were log-transformed and mean ± SD were determined. Using the standard MIC and MBC assay above with staphylococcus aureus strain […] and […] were tested with GML.
# Pasteurella multocida = details: Gram Negative; Aerobe; 1 strain tested; cited from earlier work
# Shigella sonnei = details: Gram Negative; Aerobe; 1 strain tested; cited from earlier work
# Escherichia coli = details: Gram Negative; Aerobe; 2 strains tested; cited from earlier work
# TSST-1 = format: cell-based, Staphylococcus aureus
# [6] = tested on: Peptostreptococcus species; details: Gram Positive; Anaerobe; 1 strain tested; cited from earlier work
# [7] = tested on: Gram-negative bacteria with an intact lipopolysaccharide, such as Escherichia coli; assay: Killing of Gram-negative bacteria with intact lipopolysaccharide by GML; format: cell-based
# Proteus vulgaris = details: Gram Negative; Aerobe; 1 strain tested; cited from earlier work
# Mycobacterium phlei = details: Acid Fast; Aerobe; 1 strain tested; cited from earlier work
# Streptococcus pyogenes = details: Gram Positive; Aerotolerant Anaerobe; 4 strains tested; cited from earlier work
# Campylobacter jejuni = details: Gram Negative; Aerobe; 1 strain tested; cited from earlier work
# Bacillus cereus = details: Gram Positive; Aerobe; 1 strain tested; cited from earlier work
# Salmonella Minnesota = details: Gram Negative; Aerobe; 1 strain tested; cited from earlier work
# Neisseria gonorrhoeae = details: Gram Negative; Aerobe; 1 strain tested; cited from earlier work
smiles,measurement,setting,value
"CCCCCCCCCCCC(=O)OCC(O)CO (centres unmarked) [GML, glycerol monolaureate]",Average Bactericidal Concentration,[1],50 mg/mL
same,Average Bactericidal Concentration,Streptococcus sanguinis,50 mg/mL
same,Average Bactericidal Concentration,Group C Streptococcus,30 mg/mL
same,Average Bactericidal Concentration,Klebsiella pneumoniae,Not Susceptible
same,Average Bactericidal Concentration,Enterobacter aerogenes,Not Susceptible
same,Average Bactericidal Concentration,[2],10 mg/mL
same,concentration to which all S. aureus strains tested remain susceptible,S. aureus strains; all strains of S. aureus tested,≤ 500 µg/mL
same,bactericidal concentration,S. aureus strains; most S. aureus strains,250 µg/mL
same,Average Bactericidal Concentration,Clostridium perfringens,1 mg/mL
same,MIC/MBC,Bacillus subtilis,50 µg/mL
same,MIC/MBC,Candida auris,50 µg/mL
same,Average Bactericidal Concentration,[3],50 mg/mL
same,MIC/MBC,[4],1.0 µg/mL
same,Average Bactericidal Concentration,Burkholderia cenocepacia,500 mg/mL
same,Average Bactericidal Concentration,Mycoplasma hominis,1 mg/mL
same,Average Bactericidal Concentration,Staphylococcus aureus,300 mg/mL
same,Average Bactericidal Concentration,Streptococcus agalactiae,30 mg/mL
same,Average Bactericidal Concentration,Gardnerella vaginalis,10 mg/mL
same,Average Bactericidal Concentration,Streptococcus suis,50 mg/mL
same,MBC,[5]; read-out: minimum bactericidal concentration (MBC),250 µg/mL
same,MIC,[5]; read-out: minimum inhibitory concentration (MIC),250 µg/mL
same,Average Bactericidal Concentration,Pasteurella multocida,500 mg/mL
same,Average Bactericidal Concentration,Shigella sonnei,Not Susceptible
same,Average Bactericidal Concentration,Escherichia coli,Not Susceptible
same,inhibition of TSST-1,TSST-1,16 µg/mL
same,Average Bactericidal Concentration,[6],1 mg/mL
same,concentration that kills,[7]; with accelerants: low pH and EDTA addition,25 to 50 µg/mL
same,susceptibility to GML,[7]; without accelerants,completely resistant
same,Average Bactericidal Concentration,Proteus vulgaris,Not Susceptible
same,Average Bactericidal Concentration,Mycobacterium phlei,100 mg/mL
same,Average Bactericidal Concentration,Streptococcus pyogenes,30 mg/mL
same,Average Bactericidal Concentration,Campylobacter jejuni,1 mg/mL
same,Average Bactericidal Concentration,Bacillus cereus,50 mg/mL
same,Average Bactericidal Concentration,Salmonella Minnesota,Not Susceptible
same,Average Bactericidal Concentration,Neisseria gonorrhoeae,20 mg/mL
